From paper PMC5130005, “Indolin-2-one compounds targeting thioredoxin reductase as potential anticancer drug leads” (Oncotarget, 2016)

Key:
[1] = cell viability, MRC-5 normal lung fibroblasts; assay type: cell-based; settings: MRC-5 human normal lung fibroblasts, read-out: LC50, MRC-5 cells
[2] = system: Trx-ASK1 complex in ASK1-overexpressing HCT 116 cells; experiment: Trx-ASK1 interaction by Trx immunoprecipitation; assay type: cell-based, human
Method: HCT 116 cells were seeded in 60 mm plates and upon reaching 40% confluency, they were transfected with 1.5 μg of pCMV-SPORT6-ASK1 per plate. When the transfected cells reached ~70% confluency, they were treated with DMSO or compound 4 at indicated concentrations for 4 h and lysates were collected for immunoprecipitation set-up. For each lysate sample, a volume containing 1 mg of protein was mixed with 1.5 μg of anti-Trx antibody coupled to 20 μl of protein G-sepharose (GE Healthcare) and tumbled at 4°C for 2 h. The G-sepharose beads were washed three times in a cold washing buffer containing 20 mM Tris (pH 7.5), 0.5 M NaCl and 1 mM EGTA and once in a buffer containing 50 mM Tris (pH 7.5). The immunoprecipitated proteins were denatured in SDS sample buffer containing 5% β-mercaptoethanol and subjected to SDS-PAGE and Western blotting.

recombinant rat TrxR = target: T1, recombinant rat TrxR (Rattus norvegicus, UniProt O89049); experiment: reversibility of TrxR inhibition (desalting, DTNB reduction assay); assay type: biochemical; settings: 20 μM, 30 min, then desalting; activity followed 2 h post-desalting
T1 construct: made in house
T1 sequence (O89049 1-499): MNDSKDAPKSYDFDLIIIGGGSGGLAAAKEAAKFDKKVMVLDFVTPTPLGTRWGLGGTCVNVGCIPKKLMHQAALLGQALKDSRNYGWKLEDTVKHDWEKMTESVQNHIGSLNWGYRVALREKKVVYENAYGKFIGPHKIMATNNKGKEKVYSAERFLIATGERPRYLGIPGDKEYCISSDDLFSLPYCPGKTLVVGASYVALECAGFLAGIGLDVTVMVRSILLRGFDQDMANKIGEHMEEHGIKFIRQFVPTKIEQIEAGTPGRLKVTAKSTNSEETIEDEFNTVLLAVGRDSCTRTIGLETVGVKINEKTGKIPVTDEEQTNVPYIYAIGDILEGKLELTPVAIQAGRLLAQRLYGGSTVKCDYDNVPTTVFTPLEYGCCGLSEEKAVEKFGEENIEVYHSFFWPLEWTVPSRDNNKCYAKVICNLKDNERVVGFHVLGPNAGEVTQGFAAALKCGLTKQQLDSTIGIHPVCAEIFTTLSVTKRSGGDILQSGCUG

Trx in HCT 116 cells = experiment: Trx redox state in cells (IAA alkylation, native PAGE); assay type: cell-based, human; settings: 40 μM; 4, 8 and 14 h
Method: The redox state of cellular Trx was assessed as previously described. HCT 116 cells were seeded in 60 mm plates and allowed to grow to 70% confluency. Compounds 4 or 5 were then added to the cells for 4, 8 or 14 h. Lysates were collected in lysis buffer (50 mM Tris-HCl pH 8.3, 2 mM EDTA, 6 M guanidine HCl, 0.5% Triton-X, 50 mM IAA). The lysates were incubated in the dark for 30 min at room temperature, sonicated briefly, and finally passed through a MicroSpin G-25 column (GE Healthcare) to remove guanidine and unreacted IAA. The desalted lysates were subjected to native PAGE, followed by transfer of separated proteins onto nitrocellulose membranes for Western blot analysis using anti-Trx antibody.

SMILES | CC50 at 72 h [1] | amount of ASK1 bound to Trx1 [2] | reversibility of TrxR inhibition (recombinant rat TrxR) | Trx oxidation in HCT 116 cells (Trx in HCT 116 cells)
CCCCN1C(=O)/C(=C/C(C)=O)c2ccccc21 [Compound 4] | 25.5 ± 2.7 µM | dose-dependent decrease | irreversible inhibitors of TrxR | time-dependent oxidation of Trx
CC(=O)/C=C1/C(=O)N(Cc2ccccc2)c2ccccc21 [Compound 5] | 22.7 ± 2.4 µM | – | irreversible inhibitors of TrxR | time-dependent oxidation of Trx
